This is an account of results in patent US10919896B2, “Preparation and uses of pyrimidinone derivatives” (Cancer Research Technology Limited, priority 2016, dated 2021).

Experiment [1] concerns the target T1, Cdc7/ASK (Homo sapiens, UniProt O00311). As to the kind of experiment: Cdc7 Biochemical Assay Method 1: 384 well ELISA, whole protein substrate MCM2, antibody against Phospho MCM2 (S53). On the set-up: purchased. The following applies: 2 μM ATP, read-out: Biochemical Method 1 (pIC50) (converted). The method, boiled down:
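MCM2 protein substrate was coated on nickel-chelate plates, then Cdc7/ASK was added with 2 μM ATP in 50 mM Tris-HCl pH 8.5, 10 mM MgCl2, 1 mM DTT, 4% DMSO, 90 min at room temperature. Phospho-MCM2 (S53) was detected by ELISA with an AP secondary and PNPP absorbance. IC50 was derived from % inhibition versus no-compound and no-enzyme controls.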
On the technique in general: ELISA stands for enzyme-linked immunosorbent assay.

Experiment [2] deals with T1, Cdc7/ASK. As to the kind of experiment: Cdc7 Biochemical Assay Method 2: 384 well mobility shift assay (EZ Reader II), MCM2 peptide substrate. The following applies: 12.5 μM ATP, read-out: Biochemical Method 2 (pIC50) (converted). Further details: purchased. The procedure: This protocol describes a method for assaying Cdc7/ASK for activity. The assay is a 384 well mobility shift assay (MSA) run on the EZ Reader II microfluidics plate reader (Caliper LifeSciences), utilising a peptide substrate based on the MCM2 sequence. The assay technology is based on the change in mobility between the peptide substrate and the phosphorylated product. A 10 nL volume of the reaction mixture is sipped onto the microfluidic chip where the substrate and product are separated by electrophoresis and detected via laser-induced fluorescence (488 nm LED). The reaction can be monitored in real-time for kinetic experiments or as an end-point for IC50 determinations. The % conversion of substrate is calculated from peak heights of product (P) and substrate (S) peptides (% conversion=P/(P+S)*100).
• 10× Assay Buffer: 200 mM HEPES pH 8, 100 mM MgCl2, 0.1% v/v Triton X-100 and 15 mM DTT. Prepare fresh buffer from 1 M HEPES pH 8, 1 M MgCl2, 1 M DTT and 10% Triton x-100 stocks for each experiment. • Cdc7/ASK is purchased from commercial suppliers and used in the assay at a final assay concentration of 0.847 ng/μL or 9.2 nM. • MCM2 peptide is purchased from commercial suppliers and used in the assay at a final assay concentration of 2.5 μM. • ATP used in the assay at a final assay concentration of 12.5 μM. Methods • 1. Prepare intermediate (daughter) compound plate by transferring 2 μL of compound from the mother plate to 18 μL of 33.3% DMSO in a clear polypropylene plate. • 2. Dry-spot 1 μL of compound from the intermediate compound plate to empty assay plate. • 3. Add 5 μL of 1.694 ng/μL CDC7/ASK working solution to ‘test’ and ‘control’ wells or […] of 2× Assay Buffer to ‘blank’ wells. • 4. Add 4 μL 2.5 μM peptide/12.5 μM ATP working solution to all wells. • 5. Incubate at 37° C. for 1 hour then remove from the incubator and leave for a further 1 hour at room temperature. • 6. Place plate into an EZReader II to read.
Percentage inhibition values were calculated from % of substrate conversion values, using the no compound (DMSO) and no enzyme control values as 0% and 100% inhibition, respectively. IC50 determination was performed with ExcelFit software (IDBS) using curve fit 205. Z′ factors were determined for each plate tested and were all above 0.5.

The next experiment deals with Cdc7/Dbf4 (Homo sapiens, UniProt O00311). As to the kind of experiment: Cdc7 Biochemical Assay Method 3: Cdc7/Dbf4 Enzyme TR-FRET Assay measuring pS40MCM2. The following applies: 1 μM ATP, read-out: Biochemical Method 3 (pIC50) (converted). The method, boiled down:
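2.5 nM Cdc7/Dbf4 incubated with 100 nM biotinylated MCM2-derived peptide and 1 μM ATP, 120 minutes at 25° C. Phospho-S40 detected by TR-FRET using anti-pS40 Mcm2 antibody, terbium anti-rabbit secondary and streptavidin-Alexa Fluor488.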
For orientation: In TR-FRET formats the signal depends on donor and acceptor labels being close together.

Experiment [3] deals with Cdc7 (pS40MCM2 levels in HCT116 cells). The experiment in a line: Cdc7 Cell Pharmacodynamics Assay Method 2A: pS40MCM2 levels in HCT116 cells, 6 hours. It counts as cell-based. The following applies: Homo sapiens, HCT-116, read-out: Biomarker Method 2A (pEC50) (converted). From the text: (§1) This protocol describes a method to investigate the inhibition of Cdc7 activity by measuring pS40MCM2 levels in cells, after treatment with compounds.
(§2) • HCT116 cells (ATCC, #CCL-247) • McCoys 5A with L-glutamine (Cellgro, #10-050-CV) • 10% FCS (Cellgro, #35-010-CV) • D-PBS without CaCl2 and MgCl2 (Cellgro, #21-031-CV) • Trypsin/EDTA (Cellgro, #25-052-CL) • BSA (Calbiochem, 126593) • Cell Extraction Buffer (Invitrogen FNN0011) • Protease inhibitor cocktail (Sigma P-2714) • PMSF 0.3M stock in DMSO (Sigma P7626) • Antibody-rabbit pMCM2 Ser40 (Abcam, AB133243) • Antibody-goat MCM2 (Bethyl #A300-122A) • Antibody-goat Anti Rabbit IgG HRP (Thermo, 31462) • SuperSignal ELISA Pico Chemiluminescent Substrate (Perbio Science UK Ltd 37069) • 10×PBS (Growcells, MRGF-6236) • Triton X100 (Sigma, P-T8787) • DMSO (Fisher, D128-1) • 2-Propanol (J. T. Baker, 9095-03) Method • Seed 1×10^6 HCT116 cells into each of two 175 cm^2 flask containing 30 mL Cell Growth Media and incubate at 37° C., 5% CO2 for 3 days. • Harvest the cells from one T175 cm^2 flask and count. • Dilute with Cell Growth Media to a cell density of 2×10^5. Dispense 100 μL to each well (20,000 HCT116 cells/well) of TC treated 96-well plate(s). • Allow cells to settle overnight in incubator set at 37° C. and 5% CO2. • Cell treatment: Transfer 0.25 μL/well from the compound plate to the wells of the cell plate(s). This is a 1:400 dilution of compound in the assay. • Once all cells are treated place the cells back to the incubator and incubate for either 6 hours (Method 2A) or 18 hours (Method 2B). • Dilute the capture antibody (total MCM2#A300-122A) 1 in 250 in the required volume of PBS (5 mL per assay plate, plus 5 mL for dead volume) and add 50 μL to each well of a Hybond plate except wells A12 & B12. Seal the plate and incubate at room temperature for a minimum of 2 hours. • Defrost aliquot of Invitrogen Cell Extraction Buffer (FNN0011) on ice and supplement with appropriate volume of both Sigma protease inhibitor cocktail (P-2714) and PMSF (final conc 1 mM from a 1 M stock in DMSO). • After the 6 hour or 18 hour cell treatment time, tap out the media from the assay plates and place them in the −70° C. freezer for at least 5 minutes. • Flick out the remaining liquid in the previously prepared capture Ab plate(s) and add 200 μL 2% BSA per well. Incubate for 1 hour at room temperature. • Remove plates from freezer and add 20 μL of ice cold complete lysis buffer. Incubate cells for 30 minutes at 4° C. • Add 30 μL per well 2% BSA • At the end of the 1 hour incubation, wash the Capture/ELISA plate(s) with Wash Buffer on the BioTek plate washer. • Transfer 40 μL per well of the lysis plate(s) to the same wells in the Capture/ELISA plate. Incubate cells overnight at 4° C. • At the end of the overnight incubation, wash the ELISA plate(s) with Wash Buffer on BioTek plate washer. • Prepare Detection Antibody Buffer and dispense 50 μL to all wells of ELISA plate(s) except wells G1 & H1. Cover plate and incubate at room temperature for 2 hours with gentle shaking. • At the end of the 2 hour incubation, wash the ELISA plate(s) with Wash Buffer on the BioTek plate washer. • Prepare the Conjugated Antibody Buffer and dispense 50 μL to all wells of ELISA plate(s). • Cover the plate and incubate at room temperature for 1 hour with gentle shaking. • At the end of the 1 hour incubation, wash the ELISA plate(s) with Wash Buffer on the BioTek plate washer. • Prepare Substrate Buffer and dispense 50 μL to all wells of ELISA plate(s). • Incubate for a minimum of 10 minutes and read plates on the EnVision 2100 Multilabel Reader (Mirror: Luminescence (404) & Luminescence 700 (212); Measurement Height: 6.5 mm; Measurement Time: 0.2 s). Method 3

Experiment [4] has the same test system. The experiment in a line: Cdc7 Cell Pharmacodynamics Assay Method 2B: pS40MCM2 levels in HCT116 cells, 18 hours. The conditions noted are these: Homo sapiens, HCT-116, read-out: Biomarker Method 2B (pEC50) (converted). It counts as cell-based.
Source text: as §1, §2

T1 sequence (O00311 whole entry): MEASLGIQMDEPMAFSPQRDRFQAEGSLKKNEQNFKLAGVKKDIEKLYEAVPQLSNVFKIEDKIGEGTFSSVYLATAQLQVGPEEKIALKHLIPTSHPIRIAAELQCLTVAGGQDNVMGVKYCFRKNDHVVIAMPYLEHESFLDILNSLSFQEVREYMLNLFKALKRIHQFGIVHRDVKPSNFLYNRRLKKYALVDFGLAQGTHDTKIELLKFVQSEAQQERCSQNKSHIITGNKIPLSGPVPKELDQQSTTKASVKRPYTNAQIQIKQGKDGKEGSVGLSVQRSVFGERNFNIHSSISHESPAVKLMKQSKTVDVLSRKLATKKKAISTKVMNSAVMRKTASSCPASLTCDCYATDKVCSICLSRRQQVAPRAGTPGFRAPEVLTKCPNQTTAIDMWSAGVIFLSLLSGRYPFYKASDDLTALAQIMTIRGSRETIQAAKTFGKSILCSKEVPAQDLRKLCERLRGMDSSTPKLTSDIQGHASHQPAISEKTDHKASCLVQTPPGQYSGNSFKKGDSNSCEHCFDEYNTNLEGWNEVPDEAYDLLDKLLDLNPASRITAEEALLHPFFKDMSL
T1 sequence (Q9UBU7 whole entry partner): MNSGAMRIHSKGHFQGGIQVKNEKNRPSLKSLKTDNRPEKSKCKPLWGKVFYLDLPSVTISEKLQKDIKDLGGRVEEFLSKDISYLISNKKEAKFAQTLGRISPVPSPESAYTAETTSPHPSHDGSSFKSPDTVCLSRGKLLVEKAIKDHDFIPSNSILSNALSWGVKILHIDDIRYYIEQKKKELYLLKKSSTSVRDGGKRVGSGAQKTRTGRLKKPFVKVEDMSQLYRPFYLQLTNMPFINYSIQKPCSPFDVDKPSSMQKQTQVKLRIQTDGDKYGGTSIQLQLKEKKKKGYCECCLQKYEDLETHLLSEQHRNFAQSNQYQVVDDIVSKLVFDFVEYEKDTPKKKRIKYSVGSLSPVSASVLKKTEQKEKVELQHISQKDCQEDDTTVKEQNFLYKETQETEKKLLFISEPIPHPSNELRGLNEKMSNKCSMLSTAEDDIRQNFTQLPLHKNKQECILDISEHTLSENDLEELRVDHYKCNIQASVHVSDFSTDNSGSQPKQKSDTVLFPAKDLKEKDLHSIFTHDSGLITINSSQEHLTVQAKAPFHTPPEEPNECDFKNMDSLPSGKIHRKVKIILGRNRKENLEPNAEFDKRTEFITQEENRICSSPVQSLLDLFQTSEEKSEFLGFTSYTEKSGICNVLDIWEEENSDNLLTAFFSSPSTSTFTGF
Sequence of Cdc7/Dbf4 (O00311 whole entry): as the sequence (O00311 whole entry) above
Sequence of Cdc7/Dbf4 (Q9UBU7 whole entry partner): as the sequence (Q9UBU7 whole entry partner) above

Turning to `CC(F)(F)[C@H]1CN(c2nc(-c3ccncc3)[nH]c(=O)c2Cl)CCN1` [Compound 307], the IC50 on Cdc7/ASK [1] is 3.63 nM; at Cdc7/ASK [2], 2.29 nM.
Take `O=c1[nH]c(-c2ccnc(F)c2)nc(N2CCC3CCNCC32)c1Cl` (centres unmarked) [Compound 221]: the IC50 at Cdc7/Dbf4 is 2.88 nM. The results for the EC50 in experiment [3] and in experiment [4] were 1620 nM and 562 nM, respectively.
Take `CC(C)[C@H]1CN(c2nc(-c3ccncc3)[nH]c(=O)c2C#N)CCN1` [Compound 409, 4-[(3S)-3-isopropylpiperazin-1-yl]-6-oxo-2-(4-pyridyl)-1H-pyrimidine-5-carbonitrile]: on Cdc7/ASK [2], the IC50 was 11.5 nM.
With `CC(C)CC1COCCN1c1nc(-c2ccncc2)[nH]c(=O)c1Cl` (centres unmarked) [Compound 367], the IC50 on Cdc7/ASK [2] was 295 nM.
Regarding `O=c1[nH]c(-c2ccnc(F)c2)nc(N2C3CCCC2COC3)c1Cl` [Compound 334], on Cdc7/Dbf4, the IC50 was 0.724 nM. The values for the EC50 in experiment [3] and in experiment [4] were 135 nM and 61.7 nM, respectively.
For `O=c1[nH]c(-c2ccncc2)nc(N2CCNCC2c2ccccc2)c1Cl` (centres unmarked) [Compound 372], the IC50 on Cdc7/ASK [2] was 263 nM.
With `C[C@H]1COCCN1c1nc(-c2ccnc(F)c2)[nH]c(=O)c1Cl` [Compound 333], the IC50 at Cdc7/Dbf4 is 1.23 nM. Besides, the figures for the EC50 in experiment [3] and in experiment [4] were 347 nM and 87.1 nM, respectively.
Turning to `CC(=O)NC1CCN(c2nc(-c3ccnc(F)c3)[nH]c(=O)c2Cl)CC1` [Compound 232], at Cdc7/Dbf4, the IC50 was 1.02 nM. Further, the EC50 is 2000 nM in experiment [3] and 977 nM in experiment [4].
On to `NC[C@@H]1CCN(c2nc(-c3ccnc(F)c3)[nH]c(=O)c2Cl)C1` [Compound 318], for which the IC50 at Cdc7/ASK [2] was 14.1 nM.
As to `CC(C)C[C@H]1CN2CCC[C@H]2CN1c1nc(-c2ccncc2)[nH]c(=O)c1Cl` [Compound 184], the values for the IC50 on Cdc7/Dbf4, on Cdc7/ASK [1] and on Cdc7/ASK [2] were 102 nM, 437 nM and 170 nM, respectively.
Consider `CC(C)(C)[C@H]1CN(c2nc(-c3ccncc3)[nH]c(=O)c2C#N)CCN1` [Compound 411, 4-[(3S)-3-tert-butylpiperazin-1-yl]-6-oxo-2-(4-pyridyl)-1H-pyrimidine-5-carbonitrile], for which the IC50 at Cdc7/ASK [2] is 10.5 nM.
Same read-out and setting: the figure for `CCCC1COCCN1c1nc(-c2ccncc2)[nH]c(=O)c1Cl` (centres unmarked) [Compound 366] is 60.3 nM.
For the compound `O=c1[nH]c(-c2ccnc(F)c2)nc(N2C3CCC2COC3)c1Cl` [Compound 192], at Cdc7/Dbf4, the IC50 is 0.813 nM. The values for the EC50 in experiment [3] and in experiment [4] were 89.1 nM and 49 nM, respectively.
